The source of these data is article PMC11460214 (RSC Advances, 2024).

In this assay the target is T1, dihydrofolate reductase (Homo sapiens, UniProt P00374).
T1 sequence (P00374 1-187): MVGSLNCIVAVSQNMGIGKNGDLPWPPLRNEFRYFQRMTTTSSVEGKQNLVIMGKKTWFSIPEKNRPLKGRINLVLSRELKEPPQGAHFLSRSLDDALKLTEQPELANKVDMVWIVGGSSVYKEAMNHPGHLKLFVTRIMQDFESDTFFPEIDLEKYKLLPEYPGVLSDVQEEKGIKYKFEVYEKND
Description: Dihydrofolate reductase enzyme inhibition assay. In kind it is biochemical. The following applies: for inhibition at 500 µM: read-out: % inhibition (0.5 mM).

Molecules are shown by their SMILES.

`S=C(NN=Cc1ccc(N2CCCC2)cc1)NC1CCCCC1` [Compound 5a, N-Cyclohexyl-2-[4-(pyrrolidin-1-yl)benzylidene]hydrazinecarbothioamide]: the IC50 worked out at 29.1 ± 0.38 µM and the inhibition at 500 µM was found to be 83.6%.
As to `S=C(NN=Cc1ccc(N2CCCC2)cc1)Nc1ccc(Br)cc1` [Compound 5m, N-(4-Bromophenyl)-2-[4-(pyrrolidin-1-yl)benzylidene]hydrazinecarbothioamide], the half-maximal inhibitory concentration (IC50) was determined as 16.3 ± 0.26 µM and the inhibition at 500 µM amounted to 90.8%.
Taken in the same sequence, the figures for `S=C(NCc1ccc(Cl)cc1)NN=Cc1ccc(N2CCCC2)cc1` [Compound 5i, N-(4-Chlorobenzyl)-2-[4-(pyrrolidin-1-yl)benzylidene]hydrazinecarbothioamide] were 27.5 ± 0.5 µM and 83.9%.
Taken in the same sequence, the figures for `O=[N+]([O-])c1cccc(NC(=S)NN=Cc2ccc(N3CCCC3)cc2)c1` [Compound 5o, N-(3-Nitrophenyl)-2-[4-(pyrrolidin-1-yl)benzylidene]hydrazinecarbothioamide] were 45.3 ± 0.63 µM and 75.6%.
Taken in the same sequence, the figures for `O=[N+]([O-])c1ccc(NC(=S)NN=Cc2ccc(N3CCCC3)cc2)cc1` [Compound 5j, N-(4-Nitrophenyl)-2-[4-(pyrrolidin-1-yl)benzylidene]hydrazinecarbothioamide] were 54.1 ± 0.72 µM and 74.1%.
Regarding `Fc1ccccc1NC(=S)NN=Cc1ccc(N2CCCC2)cc1` [Compound 5q, N-(2-Fluorophenyl)-2-[4-(pyrrolidin-1-yl)benzylidene]hydrazinecarbothioamide], 35.3 ± 0.59 µM corresponded to half-maximal inhibition (IC50) and the inhibition at 500 µM was 77.3%.
Taken in the same sequence, the figures for `COc1cccc(NC(=S)NN=Cc2ccc(N3CCCC3)cc2)c1` [Compound 5h, N-(3-Methoxyphenyl)-2-[4-(pyrrolidin-1-yl)benzylidene]hydrazinecarbothioamide] were 23.1 ± 0.35 µM and 86.7%.
On the same counts, the results for `COc1ccc(NC(=S)NN=Cc2ccc(N3CCCC3)cc2)cc1` [Compound 5d, N-(4-Methoxyphenyl)-2-[4-(pyrrolidin-1-yl)benzylidene]hydrazinecarbothioamide] are 12.4 ± 0.48 µM and 91.1%.
Take `S=C(NCc1ccccc1)NN=Cc1ccc(N2CCCC2)cc1` [Compound 5p, N-Benzyl-2-[4-(pyrrolidin-1-yl)benzylidene]hydrazinecarbothioamide]: half-maximal inhibition (IC50) was put at 48.2 ± 0.6 µM and the inhibition at 500 µM is 74.6%.
Taken in the same sequence, the figures for `S=C(NCCc1ccccc1)NN=Cc1ccc(N2CCCC2)cc1` [Compound 5l, N-Phenethyl-2-[4-(pyrrolidin-1-yl)benzylidene]hydrazinecarbothioamide] were 12.4 ± 0.25 µM and 91.5%.
On the same counts, the results for `S=C(NN=Cc1ccc(N2CCCC2)cc1)Nc1cccc(Cl)c1Cl` [Compound 5c, N-(2,3-Dichlorophenyl)-2-[4-(pyrrolidin-1-yl)benzylidene]hydrazinecarbothioamide] are 36.2 ± 0.69 µM and 81.3%.
On the same counts, the results for `Cc1ccc(CNC(=S)NN=Cc2ccc(N3CCCC3)cc2)cc1` [Compound 5r, N-(4-Methylbenzyl)-2-[4-(pyrrolidin-1-yl)benzylidene]hydrazinecarbothioamide] are 42.2 ± 0.63 µM and 79.8%.
Take `S=C(NCCN1CCOCC1)NN=Cc1ccc(N2CCCC2)cc1` [Compound 5k, N-(2-Morpholinoethyl)-2-[4-(pyrrolidin-1-yl)benzylidene]hydrazinecarbothioamide]: half-maximal inhibition (IC50) required 40.6 ± 0.59 µM and the inhibition at 500 µM worked out at 76.9%.
Taken in the same sequence, the figures for `Fc1ccc(NC(=S)NN=Cc2ccc(N3CCCC3)cc2)cc1` [Compound 5b, N-(4-Fluorophenyl)-2-[4-(pyrrolidin-1-yl)benzylidene]hydrazinecarbothioamide] were 33.1 ± 0.71 µM and 80.6%.
On the same counts, the results for `S=C(NN=Cc1ccc(N2CCCC2)cc1)Nc1cccc(Br)c1` [Compound 5n, N-(3-Bromophenyl)-2-[4-(pyrrolidin-1-yl)benzylidene]hydrazinecarbothioamide] are 22.1 ± 0.37 µM and 88.2%.
As to `Cc1cccc(C)c1NC(=S)NN=Cc1ccc(N2CCCC2)cc1` [Compound 5e, N-(2,6-Dimethylphenyl)-2-[4-(pyrrolidin-1-yl)benzylidene]hydrazinecarbothioamide], the half-maximal inhibitory concentration (IC50) turned out to be 15.3 ± 0.26 µM and the inhibition at 500 µM was 90.2%.
Taken in the same sequence, the figures for `Cc1ccc(NC(=S)NN=Cc2ccc(N3CCCC3)cc2)cc1` [Compound 5g, 2-[4-(Pyrrolidin-1-yl)benzylidene]-N-(p-tolyl)hydrazinecarbothioamide] were 14.4 ± 0.29 µM and 89.5%.
Taken in the same sequence, the figures for `S=C(NN=Cc1ccc(N2CCCC2)cc1)Nc1ccccc1` [Compound 5f, N-Phenyl-2-[4-(pyrrolidin-1-yl)benzylidene]hydrazinecarbothioamide] were 21.2 ± 0.44 µM and 86.2%.

By IC50 is commonly meant the concentration that inhibits the measured activity by half. As usually defined, the inhibition is the share of the control response that was lost under treatment.
